Results taken from the supplement of paper PMC10307832.

Columns and labels:
AT-7519 = compound: O=C(NC1CCNCC1)c1n[nH]cc1NC(=O)c1c(Cl)cccc1Cl [AT-7519]; assay: relative viability (nuclei count vs DMSO), 5 days (fraction); higher = more cells survive
Summary of the method: (§1)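 Viability was read as treated-well nuclei divided by vehicle-well nuclei, using the median across plates. Lung cancer cell lines in 1536-well plates were kept overnight at 37 °C, pinned with five √10-spaced library-drug doses, and after 5 days were Hoechst-stained, imaged at 4× and counted in MetaXpress. Plates passed only with control CV below 25% and at least one doubling.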

[1] = compound: C1=CC2=C(C=C(C(=C2N=C1)O)N=NC3=CC4=C(C=C3)C=C(C=C4)S(=O)(=O)O)S(=O)(=O)O; assay: as above
Summary of the method: as §1

Cell Line	relative viability (AT-7519; 0.01 µM)	relative viability (AT-7519; 0.03162 µM)	relative viability (AT-7519; 0.3162 µM)	relative viability (AT-7519; 1 µM)	relative viability ([1]; 0.08 µM)	relative viability ([1]; 0.253 µM)	relative viability ([1]; 0.8 µM)	relative viability ([1]; 2.53 µM)	relative viability ([1]; 8 µM)
NCI-H596	0.928	0.925	1.04	0.912	1.06	0.987	0.982	1.03	1.01
NCI-H647	1	0.923	0.886	0.72	0.877	0.932	0.881	1.08	0.971
NCI-H650	1.02	0.871	1.01	1.03	0.883	0.937	0.86	0.969	0.671
NCI-H661	1.04	0.874	1.02	0.648	1.02	1	0.969	1.01	0.967
NCI-H727	0.954	0.802	0.849	0.447	1.15	0.921	0.923	0.958	0.941
NCI-H838	0.925	0.876	0.891	0.615	1	0.966	0.924	0.992	0.997
NCI-H1299	1.05	1.02	1.02	1.18	1.02	1.01	1	1.04	1
NCI-H1355	1.01	0.961	0.992	1.05	1.08	0.982	0.965	0.993	0.856
NCI-H1395	0.934	0.998	0.816	0.665	0.9	0.939	0.843	0.976	0.899
NCI-H1437	0.985	0.99	0.999	0.879	1	1	0.988	1.05	0.912
NCI-H1563	0.955	0.934	1.02	0.998	1.09	0.96	0.995	0.949	0.878
NCI-H1623	0.982	0.934	1.05	0.773	0.925	0.995	0.953	1.06	0.852
NCI-H1648	0.877	–	0.832	0.711	0.747	0.816	0.677	0.682	1.04
NCI-H1650	0.985	1.03	0.88	0.328	0.893	0.93	0.875	0.993	0.773
NCI-H1651	0.959	0.897	1.02	0.997	1.03	0.966	0.961	0.991	0.931
NCI-H1666	0.948	0.906	0.99	0.752	1.04	1.03	0.991	0.966	1.02
NCI-H1703	0.865	0.845	0.866	0.261	0.942	0.772	0.99	0.884	1.04
NCI-H1734	1.06	0.918	0.782	0.562	1.12	0.981	0.951	0.92	0.996
NCI-H1755	1.01	0.994	1.02	0.963	1.03	0.962	0.949	1.01	1.03
